{"source": "patent US20120010178A1", "about": "“METHODS AND COMPOUNDS FOR TREATMENT OF NEURODEGENERATIVE DISORDERS” (PRESIDENT AND FELLOWS OF HARVARD COLLEGE, priority 2008, published 2012)", "key": {"SMN [1]": {"system": "SMN", "assay": "SMN levels in mouse (ES-cell derived) motor neurons", "type": "cell-based", "details": "for SMN levels in motor neurons (in words): mouse motor neurons", "procedure": "Mouse HB9-GFP derived SMN deficient motor neuron cells were incubated for 2 days with compounds from libraries and collections.\nMotor neurons were produced from mouse ES-cells expressing cherry fluorescent protein (CFP) under the control of the motor neuron-selective Hb9 promoter, as previously described (Wichterle et al., 2002).\nGFP expressing motor neurons were derived from mouse ES cells as described below. After growing for approximately 1 week, motor neurons were treated with allsterpaullone. Two days after treatment with allsterpaullone, cells were fixed and stained with SMN antibody or GFP antibody.\nmES cells were differentiated into motor neurons according to methods adapted from Wichterle et. al., Cell (2002), 110:385-397. Briefly, mES cells were grown to 70-80% confluence in 10-cm plates (Falcon) in ES cell medium. To form embryoid bodies, cells were washed once with PBS to eliminate mES medium and then incubated with 1 ml of 0.25% trypsin (GIBCO) for 5-10 min at 21-25° C. (RT). Cells were then resuspended in 10 ml of DM1 medium (DMEM-F12, GIBCO), 10% knockout serum (GIBCO), penicillin, streptomycin, glutamine (GIBCO) and 2-mercaptoethanol (GIBCO), counted and plated at a concentration of 200,000 cells per ml in Petri dishes (Falcon). Two days later, embryoid bodies were collected and resuspended into new Petri dishes containing DM1 medium supplemented with RAc (100 nM; stock 1 mM in DMSO, Sigma) and HhAg (100 nM). […] treatment was repeated with the same concentration of RAc (100 nM) and high concentration of HhAg (1 μM). On day 6, the embryoid bodies were collected in a 15-ml Falcon tube, and incubated in Earle's balanced salt solution with 20 units of Papain and 1,000 units of DNase I (Worthington Biochemical) for 10 min at 37° C. The mixture was then triturated with a 10-ml pipette and centrifugated for 5 min at 800 rpm. The resulting cell pellet was washed with PBS and resuspended in F12 medium (F12 medium, GIBCO) with 2% fetal bovine serum (GIBCO), B-27 supplement (GIBCO), (GDNF and BDNF, 20 ng ml^−1, R&D Systems). The cells were counted and plated on poly-ornithine coated 96-well plates (VWR)."}, "motor neurons": {"system": "motor neurons", "assay": "Motor neuron survival (mouse motor neurons, compound treatment)", "type": "cell-based", "procedure": "Mouse motor neurons were treated with […] inhibitors. The levels of both cytoplasmic and nuclear SMN were detected and quantified using the method described in Example 2. The results shown in FIG. 14b indicate that […] inhibitors increase motor neuron survival.\nAnother way of assessing motor neuron survival is by withdrawing the neurotrophic factors from the media. Briefly, motor neurons are grown in media containing neurotrophic factors. The neurotrophic factors are then withdrawn from the growth media, e.g., cells transferred to media having no neurotrophic factors or neurotrophic factor containing media exchanged with neurotrophic factors lacking media. The compound of interest is added and motor neurons are counted on a daily basis."}, "SMN [2]": {"system": "SMN", "assay": "SMN immunofluorescence quantification (cytoplasm, nucleus, GEMs) in fibroblasts from SMA patients", "type": "cell-based, human", "details": "for levels of cytoplasmic and nuclear SMN (in words): SMA patient fibroblasts, substance alone", "procedure": "Specifically, fibroblasts from patients suffering from SMA were treated with Ionomycin (a channel modulator), Ouabain (a cardiac glycoside and channel modulator), PDGF, SAHA (an HDAC inhibitor), Lactacystin (a proteasome inhibitor) or WIN 55,212-2 (a cannabinoid receptor […] and GPCR ligand) for 72 hours. The cells were fixed with methanol/acetone and stained with Pharmingen BD antibodies, followed by 488 AlexaFluor staining. Images were obtained with 60× lens on Zeiss LSM510 META on an inverted confocal microscope.\nFor example, fibroblasts from patients suffering from SMA were treated with Ouabain, Digoxin or Lanatoside at a concentration of 0, 2.5 nM, 5 nM, 10 nM, 20 nM, 40 nM, 80 nM, […] for 72 hours. The cells were fixed with methanol/acetone and stained with Pharmingen BD antibodies, followed by 488 AlexaFluor staining. Images were obtained with 60× lens on Zeiss LSM510 META on an inverted confocal microscope.\nAn assay was established for high-content evaluation of SMN protein level in different cellular compartments after treatment with small molecules. SMN protein was visualized by immunofluorescent staining and multiple fields from each plate well were scanned by an automated confocal Opera microscope. […] For each well, the algorithm generated quantitative parameters representing number of cells, as well as SMN fluorescent intensity per cell in cytoplasm, nucleus, number and intensity of GEMs (FIG. 15). […] During the assay transfer to the robotic platform fixation with the ice cold methanol was technically limited, therefore to preserve the maximum possible window we chose to perform the screen on parental fibroblast with PFA fixation.\nFor fibroblast assays, human fibroblasts lines GM09677 (derived from patient with SMA type 1 disease) and GM03814 (derived from unaffected parental SMA carriers) were used (Coriell Cell Repositories). […] For secondary assays cells from GM09677 line were used.\nFibroblasts were grown in MEM media (Invitrogen) supplemented with 5% Fetal Bovine Serum (FBS, Invitrogen), 2 mM glutamine and 1% penicillin-streptomycin (100 U/ml) in a presence of 5% CO2 at 37° C. For drug treatments, cells were plated and treated 24 h later with 10 μM MG132 (Biomol International), […] Calpeptin (Biomol International), 10 mM ammonium chloride, 1 μM myristoylated PKI, or vehicle for the designated times.\n(§1) Compounds were stored at appropriate temperature and dissolved accordingly to the manufacturers (Tocris, Enzo, EMD and Sigma-Aldrich) in DMSO (Sigma-Aldrich), unless stated otherwise (Monensin Na in EtOH, DMPQ in water). Growth factors and PDGF neutralizing antibodies (R&D Systems) were reconstituted with buffers recommended by the supplier. For generation of the dose curves, 1×10^3 fibroblasts were plated on to 96-well Greiner Senso plates (VWR) and treated with compounds on the second day then fixed and stained at the indicated time points. For GSK inhibitors and performing p-GSK3b(Ser9) detection, two days after plating growth media containing 5% FBS was replaced to the media with FBS reduced down to 0.5%, to starve cells for 72 hours. Addition of the GSK inhibitors was done in 5% FBS enriched media."}, "[3]": {"molecular_target": "T1, GSK3b (Ser-9 phosphorylation) (Homo sapiens, UniProt P49841)", "T1 construct": "endogenous in cells; host or cells: SMA patient fibroblasts (GM09677), starved in 0.5% FBS before treatment", "T1 sequence (P49841 whole entry)": "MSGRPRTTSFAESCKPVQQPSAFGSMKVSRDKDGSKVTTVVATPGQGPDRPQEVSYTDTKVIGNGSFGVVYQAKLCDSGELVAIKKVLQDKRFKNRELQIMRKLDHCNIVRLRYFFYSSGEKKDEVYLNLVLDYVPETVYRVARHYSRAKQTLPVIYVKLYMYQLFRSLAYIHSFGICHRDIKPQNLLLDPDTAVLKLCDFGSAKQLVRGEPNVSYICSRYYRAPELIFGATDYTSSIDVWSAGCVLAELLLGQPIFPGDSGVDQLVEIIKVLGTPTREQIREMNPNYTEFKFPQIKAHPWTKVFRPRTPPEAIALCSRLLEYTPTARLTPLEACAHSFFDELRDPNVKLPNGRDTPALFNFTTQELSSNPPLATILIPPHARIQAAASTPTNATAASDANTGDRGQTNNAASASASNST", "assay": "p-GSK(Ser9) phosphorylation in patient fibroblasts (western blot / immunofluorescence)", "type": "cell-based", "procedure": "as §1, with “media. As previously described, starvation increases levels of constitutively activate GSK3b kinase, allowing to achieve a more dramatic inhibitory effect when GSK inhibitors are added together with growth factors that are also known to inhibit GSK by Ser-9 phosphorylation. […] For all compounds and growth factors control wells received solvent in amount equivalent to the highest concentration of the compound in a dose curve. For PDGF inhibitory studies, cells were pre-treated with kinase inhibitors for 2 hours and PDGF was added with a fresh kinase inhibitor solution and incubated for an additional 3 days.” for “media.”"}, "SMN [4]": {"system": "SMN", "assay": "High-content fibroblast screen for compounds that modulate SMN level", "details": "human fibroblasts, 2-3 days with compound", "experimental": "Human fibroblasts were incubated for 2-3 days with compounds from annotated collections. Cells were fixed and stained with an anti-SMN antibody. Confocal imaging was used to quantify SMN fluorescence in nucleus and cytoplasm and count Gems. Data were collected and subsequently analyzed by clustering compounds by suspected mechanism of action and chemical structure.\nFollowing optimization of assay conditions on day 0, total of 500 human fibroblasts (GM09677 line) per well were seeded in 384-well plates, on day 3 they were treated with compounds (robot CyBio) from the annotated collections and on the 5 day plates were fixed and stained (robot MAPD) with an anti-SMN antibody and secondary antibody conjugated with 448 fluorophore (FIG. 19a). Compounds from the libraries were added in duplicate at three final concentrations of 10, 1 and 0.1 uM.\nSMN detection was done on the automated confocal microscope Opera PerkinElmer with separate fluorescent exposures to 488 nM laser for and a UV light source to detect nuclei stained with Hoechst 33258 with a 20× objective.\nAfter scanning on the Opera, an XML file extraction workflow, designed with Inforsense KDE, was used to assemble the data from multiple replicate plates of each HCS experiment including the quantitative parameters described above and chemical identities, chemical concentrations and indications of which wells were used for positive and negative controls. […] The fold-induction of SMN intensity values for each well treated with a library chemical were normalized to the SMN average intensity in multiple negative control wells per plate.\nSince it is not known which form of SMN increase is the most essential, hits that scored in a duplicate at least in two different parameters greater than 1.3 fold at any of the three concentrations were selected (FIG. 19d). […] Further, 220 compounds were screened in the absence of anti-SMN primary antibody with the same assay conditions, to filter out the fluorescent compounds."}, "SMN [5]": {"system": "SMN", "assay": "Inhibition of PDGF-stimulated SMN increase in fibroblasts by kinase/receptor inhibitors", "type": "cell-based, human", "details": "SMA patient fibroblasts, PDGF plus inhibitor or neutralizing antibody", "procedure": "Fibroblasts from patients suffering from SMA were treated with PDGF at a concentration of 0, 0.3 ng/ml, 0.63 ng/ml, 1.25 ng/ml, 2.5 ng/ml, 5 ng/ml, 10 ng/ml or 20 ng/ml, in the absence or in the presence of 25 uM DMPQ or 25 uM AG-1296 respectively for 72 hours. The levels of both cytoplasmic and nuclear SMN were detected and quantified using the method described in Example 2.\n(§2) Fibroblasts from patients suffering from SMA were either control treated or treated with PDGF at a concentration of 0, 0.63 ng/ml, 1.25 ng/ml, 2.5 ng/ml, 5 ng/ml, 10 ng/ml or 20 ng/ml, in the absence or in the presence of 50 uM LY294002 or 2 uM P1-103 respectively for 72 hours. The levels of both cytoplasmic and nuclear SMN were detected and quantified using the method described in Example 2.\nas §2, with “of” for “of 50 uM LY294002 or”, “uM Papamycin” for “uM P1-103 respectively”, “Example x.” for “Example 2.”\nA range of concentrations were tested in order not to miss the effects. SMN level were evaluated by Opera Evoteck in each cellular compartment and to assess the cell numbers that are summarized in the Table 3.\nas §1, with “media. As previously described, starvation increases levels of constitutively activate GSK3b kinase, allowing to achieve a more dramatic inhibitory effect when GSK inhibitors are added together with growth factors that are also known to inhibit GSK by Ser-9 phosphorylation. […] For all compounds and growth factors control wells received solvent in amount equivalent to the highest concentration of the compound in a dose curve. For PDGF inhibitory studies, cells were pre-treated with kinase inhibitors for 2 hours and PDGF was added with a fresh kinase inhibitor solution and incubated for an additional 3 days.” for “media.”"}, "PC12 cells": {"system": "PC12 cells", "details": "cited from earlier work"}}, "note": "“Also recorded” adds a separate entry of the source. Where two headings read alike, the source gives them in different places.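 Throughout, for SMN level in fibroblast screen (increase or decrease): Anti-SMN immunostaining with confocal imaging of nuclear and cytoplasmic SMN and gem counts, tested at 0.1, 1 and 10 uM, fold change relative to negative control wells on each plate.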"}
{"compound": "COc1cc2c(cc1OC)[C@@H]1C(=O)c3ccc4c(c3O[C@@H]1CO2)C=CC(C)(C)O4", "note": "[deguelin]", "values": [{"measurement": "spot intensity in ES-derived motor neurons", "setting": "SMN [1]", "result": "decrease"}, {"measurement": "SMN levels in motor neurons (in words)", "setting": "SMN [1]", "result": "decrease"}]}
{"compound": "O=C1Cc2c([nH]c3ccc(Br)cc23)-c2ccccc2N1", "note": "[kenpaullone, 9-bromopaullone]", "values": [{"measurement": "SMN levels in motor neurons (in words)", "setting": "SMN [1]", "result": "without increasing SMN protein levels"}, {"measurement": "motor neuron survival (in words)", "setting": "motor neurons", "result": "promote motor neuron survival"}]}
{"compound": "COc1ccc(CNC(=O)Nc2ncc([N+](=O)[O-])s2)cc1", "note": "[AR-A014418]", "values": [{"measurement": "SMN level fold increase", "setting": "SMN [2]; at a concentration of 23 μM", "result": 2, "unit": "fold"}, {"measurement": "p-GSK-Ser9 phosphorylation (in words)", "setting": "[3]; patient fibroblasts", "result": "promoted phosphorylation of p-GSK-Ser9"}, {"measurement": "SMN level in fibroblast screen (increase or decrease)", "setting": "SMN [4]", "result": "SMN is increase"}]}
{"compound": "CC(/C=C/C(=O)NO)=C\\[C@@H](C)C(=O)c1ccc(N(C)C)cc1", "note": "[Trichostatin]", "values": [{"measurement": "effect on GEMs (number / intensity, in words)", "setting": "SMN [2]; fibroblasts", "result": "increased GEM counts at the lower concentrations"}, {"measurement": "nuclear SMN at the higher dosage (in words)", "setting": "SMN [2]; fibroblasts, higher dosage", "result": "increased nuclear SMN predominantly"}, {"measurement": "SMN levels in motor neurons (in words)", "setting": "SMN [1]", "result": "increase SMN"}, {"measurement": "SMN levels in motor neurons (in words)", "setting": "SMN [1]; listed as Trichastatin", "result": "increase SMN levels"}]}
{"compound": "COc1cc(OC)c2cc(-c3ccncc3)cnc2c1.Cl.Cl", "note": "[DMPQ]", "values": [{"measurement": "levels of cytoplasmic and nuclear SMN (in words)", "setting": "SMN [2]", "result": "decreases"}, {"measurement": "levels of cytoplasmic and nuclear SMN (in words)", "setting": "SMN [2]; listed as DMPQ dihydrochloride", "result": "decrease"}, {"measurement": "PDGF-stimulated SMN increase in presence of inhibitor (in words)", "setting": "SMN [5]", "result": "sufficient to prevent PDGF effect on SMN; also recorded: abrogated; also recorded: blocked; also recorded: abolished"}, {"measurement": "SMN level in fibroblast screen (increase or decrease)", "setting": "SMN [4]", "result": "decreased SMN"}]}
{"compound": "CHIR98014", "values": [{"measurement": "SMN level fold increase", "setting": "SMN [2]", "result": "over 2.5 fold"}, {"measurement": "p-GSK-Ser9 phosphorylation (in words)", "setting": "[3]", "result": "promoted phosphorylation of p-GSK-Ser9"}]}
{"compound": "C=C(C)[C@H]1Cc2c(ccc3c2O[C@@H]2COc4cc(OC)c(OC)cc4[C@@H]2C3=O)O1", "note": "[roteonone]", "values": [{"measurement": "spot intensity in ES-derived motor neurons", "setting": "SMN [1]", "result": "decrease"}, {"measurement": "SMN levels in motor neurons (in words)", "setting": "SMN [1]", "result": "decrease"}]}
{"compound": "Cn1cc(C2=C(c3ccc(Cl)cc3Cl)C(=O)NC2=O)c2ccccc21", "note": "[SB216763]", "values": [{"measurement": "protection from EGTA induced death", "setting": "PC12 cells", "result": "able to protect PC12 cells from EGTA induced death"}]}
